Data on seven compounds can be found in patent US20210353579A1, “HIGH PENETRATION COMPOSITIONS AND USES THEREOF” (Techfields Pharma Co., Ltd., priority 2006, published 2021).

Structures can show the parent of a compound that is named as a salt.

Series [1] deals with cats with ocular hypertension. Nature of the series: Intraocular pressure in cats with ocular hypertension. Type of series: in vivo, cat. Here is the method: The ability of diethylaminoethyl acetylsalicylate.HCl to reduce intraocular pressure (IOP) was evaluated in cats with ocular hypertension produced by previously done laser trabeculoplastry. IOP was determined with a pneumatonometer after light corneal anesthesia with dilute proparacaine. 14 Cats were divided into 2 groups. Baseline IOP was determined prior to treatment with the test compound aqueous solution. […] In group B, 30 mg/kg of diethylaminoethyl acetylsalicylate.HCl the area around eye (outside) of cat trice per day for 10 days.

Series [2] concerns normal rats. As to the kind of experiment: Blood glucose in normal rats, transdermal. The format is in vivo, rat. In a few lines: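 Compounds equivalent to 20 mg/kg NSAIA were applied transdermally to a shaved ~1.5 cm^2 area of rat backs once daily at 8 am for 5 weeks (n=7). Non-fasting blood glucose was measured every 3 days at 3 pm from week 2 to week 5, and blood lipids at the end of week 5.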

Series [3] relates to rats (SLAC/GK, type 2 diabetes). As to the kind of experiment: Blood lipid in type 2 diabetes rats, transdermal. Type of series: in vivo, rat. An outline of the steps:
(§1)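 GK type 2 diabetic rats (n=7) received the HPPs transdermally on a shaved ~1.5 cm^2 area of the back, at a dose equal to 20 mg/kg of NSAIAs, once daily for 5 weeks. Non-fasting blood glucose was measured every 3 days at 3 pm from week 2 to week 5, and blood lipids at the end of week 5.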

Series [4] concerns normal rats. Nature of the series: Blood glucose in normal rats, oral with food. Type of series: in vivo, rat.
The subject of series [5] is rats (SLAC/GK, type 2 diabetes). As to the kind of experiment: Blood glucose in type 2 diabetes rats, transdermal. Type of series: in vivo, rat. Particulars: diabetic rats (SLAC/GK). In a few lines:
as §1

For series [6] the test system is unchanged. As to the kind of experiment: Blood lipid in type 2 diabetes rats, oral with food. The format is in vivo, rat. In a few lines: (§2)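 Compounds (dosed equivalent to 20 mg/kg of NSAIAs) mixed in food and given orally daily for 5 weeks to rats (n=7). Non-fasting blood glucose measured every 3 days at 3 pm from week 2 to week 5; blood lipids measured at end of week 5.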

Series [7] concerns mice (SLAC:NOD-IDDM, type 1 diabetes). As to the kind of experiment: Blood glucose in type 1 diabetes mice, transdermal. The format is in vivo, mouse. An outline of the steps:
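NOD-IDDM type 1 diabetic mice (n=7) received prodrug transdermally on shaved back skin (~1.5 cm²), at a dose equivalent to 30 mg/kg NSAIA, once daily for 7 weeks. Non-fasted blood glucose was measured every 3 days at 3 pm from week 4 to week 7.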

Series [8] concerns rats (SLAC/GK, type 2 diabetes). As to the kind of experiment: Blood glucose in type 2 diabetes rats, oral with food. Type of series: in vivo, rat. An outline of the steps:
as §2

Series [9] relates to Chinese white rabbits. Nature of the series: Autologous blood clot pulmonary embolization, thrombus propagation. The format is in vivo, rabbit. Particulars: 20 mg/kg topically, after 2 days. How it is done:
Eighteen Chinese White rabbits weighing between 3.0 and 3.5 kg (aged 6-7 months) were selected and divided into three groups (control, P-1 and […] groups, n=6). One hour before the experiment, thrombi were made by aspirating venous blood (1 ml) into a sterilized bottle to clot. To avoid fragmentation and slow lysis, the autologous blood clots were stabilized in temperature-controlled (70° C.) distilled water for 10 min. After anesthesia, the femoral veins were exposed and distally isolated, and autologous blood clots (0.05 g/kg) were injected through an indwelling catheter (20 GA), which had been placed in the femoral vein isolated earlier. 50% acetone solution of diethylaminoethyl acetylsalicylate.acetylsalicylic acid salt (P-1, in acetone, 20 mg/kg) and diethylaminoethyl acetylsalicylsalicylate. acetylsalicylsalicylic acid salt (P-59, 20 mg/kg) were topically applied to the back of the rabbits. After 2 days, rabbits were euthanized with an excessive intravenous injection of sodium amobarbital (60 mg/kg). The lungs and hearts were isolated to observe whether thrombi were present in the pulmonary arteries. The lungs were immersed in 10% formalin for 24 h. Consecutive transverse sections along the obstructed pulmonary arteries were paraffin-embedded and stained with hematoxylin-eosine. […]

The test system of series [10] is Chinese white rabbits. Nature of the series: Malassezia-induced lesions similar to psoriasis. Type of series: in vivo, rabbit. Conditions: 5% aqueous solution twice per day, 10 days after application. The text has this:
Heavy suspensions of Malassezia [Rosenberg, E. W., et al., Mycopathologia, 72, 147-154 (1980)] were applied to the shaved skin on the backs of the Chinese white rabbits (n=4×6) twice (at 7 am and 7 pm) per day for 2 weeks, lesions similar to psoriasis resulted.

Series [11] has as its system Human breast cancer cells (BCAP-37). As to the kind of experiment: Human breast cancer xenograft in nude mice, topical. Particulars: day 42; 30 μl of 5% (1.5 mg) topically every 8 hours from day 14; control 800 ± 100. An outline of the steps: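 BCAP-37 tumour tissue (2-3 mm^3) was xenografted subcutaneously into the front leg of nude BALB mice, 7 per group. Compounds were applied topically as 30 μl of 5% solution (1.5 mg) in acetone or water.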
In general terms: A xenograft is tissue or cells of one species grown in another, often human tumour cells in immunodeficient mice.

In series [12] the test system is Human colon cancer cells (LS174J). As to the kind of experiment: Human colon cancer xenograft in nude mice, topical. Particulars: day 30, about 30 μl of 5% solution (1.5 mg) topically applied. The text has this: Human colon cancer cells (LS174J, 2-3 mm^3 of tumor tissue was used in each mouse) are subcutaneously xenografted into the front leg of nude mice (BALB).

A further series relates to mice (MRL/LPR). As to the kind of experiment: Anti-lupus erythematosus activity. Type of series: in vivo, mouse. Particulars: 30 mg/kg topically twice per day, after 6 weeks.
The conditions of series [13]: 1 hour after 50 mg/kg on the back of sheep, 10% aqueous solution.
For the next series, the system named is Hypertension patients. As to the kind of experiment: Anti-hypertension effect of transdermal atenolol in patients. Type of series: in vivo, human. How it is done: 20 Hypertension patents were divided to 2 groups. Group A is control group (n=10, 1 ml of water was administrated to the chest of patients once per day) and group B is atenolol treated group (n=10, 100 mg of atenolol HCl salt was administrated to the chest of patients once per day) (Table 32).

Where [14] appears, read: baseline, equal to 20 mg/kg of NSAIAs.
Where [15] appears, read: end of the fifth week, equal to 20 mg/kg of NSAIAs once per day.
Setting [16] is: end of the fifth week, equal to 20 mg/kg of NSAIAs every day.

On to `CCN(CC)CCOC(=O)c1ccccc1OC(C)=O.Cl` [diethylaminoethyl acetylsalicylate•HCl], for which the “Intraocular pressure, Base-line” value in series [1] (base-line, prior to treatment, group B, 30 mg/kg around the eye) came to 24.1 ± 0.7. Also, the “Intraocular pressure, End of treatment (day10)” value in [1] (day 10, group B, 30 mg/kg applied to the area around the eye for 10 days) is recorded as 16.1 ± 0.5.

On to `CC(=O)Oc1ccccc1C(=O)Oc1ccccc1C(=O)O.CCN(CC)CCOC(=O)c1ccccc1OC(=O)c1ccccc1OC(C)=O` [P-59, diethylaminoethyl acetylsalicylsalicylate.acetylsalicylsalicylic acid salt], for which the “Blood glucose, Average” value is 7.3 ± 1 mmol/L in the series with normal rats [2] (normal rats (second Average line of Table 24), average second to fifth week, equal to 20 mg/kg of NSAIAs once per day); 8.7 ± 1 mmol/L in series [5] (average second to fifth week, no fasting, equal to 20 mg/kg of NSAIAs once per day for 5 weeks); 8.7 ± 1 mmol/L in series [7] (average fourth to seventh week, no fasting, equal to 30 mg/kg of NSAIAs once per day for 7 weeks). Also, the “Blood glucose, Baseline” value in the series on normal rats [2] (normal rats (second Baseline line of Table 24), baseline, equal to 20 mg/kg of NSAIAs) was 7.2 ± 1 mmol/L; in series [5] (baseline, equal to 20 mg/kg of NSAIAs once per day), 16.3 ± 3 mmol/L; in [7] (baseline, equal to 30 mg/kg of NSAIAs) it was 24.3 ± 3 mmol/L. In addition, the “Cholesterol (HDL), Baseline” value in series [3] (setting [14]) is listed as 1.6 ± 0.2 mmol/L; in series [6] (setting [14]) it was 1.9 ± 0.2 mmol/L. The “Cholesterol (total), Baseline” value in series [3] (setting [14]) was determined as 7.6 ± 0.6 mmol/L; in [6] (setting [14]), 7.7 ± 0.6 mmol/L. In addition, the “Triglycerides, Baseline” value in [3] (setting [14]) is recorded as 5.6 ± 0.5 mmol/L; in series [6] (setting [14]) it was 5.4 ± 0.6 mmol/L. Moreover, the “Cholesterol (HDL), Average” value in [3] (setting [15]) is 1.6 ± 0.2 mmol/L; in series [6] (setting [16]), 1.8 ± 0.2 mmol/L. Also, the figures for the “Cholesterol (total), Average” value in series [3] (setting [15]) and in [6] (setting [16]) were 5.1 ± 0.3 mmol/L and 5.7 ± 0.3 mmol/L, respectively. In addition, the results for the “Triglycerides, Average” value in series [3] (setting [15]) and in series [6] (setting [16]) were 1.9 ± 0.2 mmol/L and 2.7 ± 0.2 mmol/L, respectively. In the series with normal rats [4] (average second to fifth week, equal to 20 mg/kg of NSAIAs every day), the “Blood glucose, Normal rats, Average” value was 7.3 ± 1 mmol/L. The “Blood glucose, Normal rats, Baseline” value with normal rats [4] (setting [14]) stood at 7.5 ± 1 mmol/L. Besides, the “Blood glucose, Diabetic rats, Average” value in series [8] (average second to fifth week, no fasting, equal to 20 mg/kg of NSAIAs every day for 5 weeks) turned out to be 8.6 ± 1 mmol/L. Besides, in series [8] (setting [14]), the “Blood glucose, Diabetic rats, Baseline” value is reported as 15.3 ± 3 mmol/L. The “lung tissue and vascular walls (thrombus propagation)” value in the series on Chinese white rabbits [9] was “both lung tissue and vascular walls were normal”.

Regarding `CC(=O)O.CC(C)Cc1ccc(C(C)C(=O)OCC2CCCNC2)cc1` (centres unmarked) [P-5, 3-piperidinemethyl 2-(ρ-isobutylphenyl) propionate.AcOH], the “lesions similar to psoriasis” value in the series with Chinese white rabbits [10] is “the lesions were resolved”. Moreover, the values for the Tumor size in series [11] and in [12] were 190 ± 50 mm^3 and 390 ± 110 mm^3, respectively. Moreover, the “skin lesions and lupus nephritis” value in the series on mice (MRL/LPR) was “all skin lesions and lupus nephritis were resolved”.

For `CCN(CC)CCOC(=O)c1ccccc1OC(C)=O.Cl` [Diethylaminoethyl acetylsalicylate.HCl, diethylaminoethyl acetylsalicylate.HCl], the anti-glaucoma activity result in series [1] (30 mg/kg around the eye, 10 days) is “very strong anti-glaucoma activity”.

Consider `CCN(CC)CCOC(=O)C(C)c1ccc(CC(C)C)cc1.O=C(O)CC(O)(CC(=O)O)C(=O)O` (centres unmarked) [diethylaminoethyl 2-(ρ-isobutylphenyl)propionate. citric acid salt], for which, in series [13], the “ibuprofen found in the milk” value was determined as 55 ± 8 µg/mL and the “ibuprofenamine found in the milk” value amounted to 10 ± 5 µg/mL.

`CC(C)NCC(O)COc1ccc(CC(N)=O)cc1` (centres unmarked) [atenolol]: in the series on Hypertension patients (2 weeks after treatment, value after the slash, 100 mg atenolol HCl salt to the chest once per day), the “Blood pressure (2 weeks after treatment), second value” is 113 ± 23 mmHg. Also, in the series with Hypertension patients (before treatment, value after the slash, 100 mg atenolol HCl salt to the chest once per day), the “Blood Pressure (before treatment), second value” was determined as 110 ± 20 mmHg.

For `CC(C)NCC(O)COc1ccc(CC(N)=O)cc1` (centres unmarked) [atenolol HCl salt, reference compound], the “blood pressure of hypertension patients” value in the series with Hypertension patients (100 mg in 1 ml of pure water per day transdermally) is given as “controlled”.
